Test results: patent publication US12594276B2, “Inhibitors of human immunodeficiency virus replication” (ViiV Healthcare UK (No.5) Limited, priority 2024, dated 2026)
Read-outs that look alike come from different tables or passages of the source.

How the values were obtained:
[1] = system: recombinant NL4-3 virus (nef section replaced with Renilla luciferase gene) in MT-2 cells; experiment: HIV cell culture assay (antiviral activity, luciferase readout); format: cell-based; settings: Renilla, NL43, MT-2 cells infected for 4-5 days with recombinant NL4-3 Renilla luciferase virus
How it was run: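 Compound activity was measured as reduction of luciferase in MT-2 cells infected for 4-5 days with serially diluted compound present. EC50 values were calculated with the median effect equation.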

[2] = Compound cytotoxicity, XTT-based colorimetric assay; format: cell-based; settings: human
How it was run: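 Follows the antiviral assay procedure, but with uninfected MT2 cells. On day 4, cell viability is measured by XTT-based colorimetry, giving CC50 values.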

[3] = uninfected MT2 cells, day 4, XTT, read-out: CC50

SMILES	EC50 [1]	CC50 at 4 days [2]	CC50 at 4 days [2, 3]
Cc1cc(C2CCC(F)(F)CC2)nc2nc([C@H](Cc3cc(F)cc(F)c3)NC(=O)Cn3nc(C4CC4)c4c3C[C@@H]3C[C@H]43)n(-c3ccc(Cl)c4c(NS(C)(=O)=O)nn(CCN5[C@@H]6CC[C@H]5COC6)c34)c(=O)c12 (atropisomer, axis not shown; (P)) [Example 6, N-[(1S)-1-[(3P)-3-(4-chloro-3-methanesulfonamido-1-{2-[(1R,5S)-3-oxa-8-azabicyclo[3.2.1]octan-8-yl]ethyl}-1H-indazol-7-yl)-7-(4,4-difluorocyclohexyl)-5-methyl-4-oxo-3H,4H-pyrido[2,3-d]pyrimidin-2-yl]-2-(3,5-difluorophenyl)ethyl]-2-[(2S,4S)-9-cyclopropyl-7,8-diazatricyclo[4.3.0.0^2,^4]nona-1(6),8-dien-7-yl]acetamide]	6 pM	> 50000 pM	–
COCCNc1cc(C2CCC(F)(F)CC2)nc2nc([C@H](Cc3cc(F)cc(F)c3)NC(=O)Cn3nc(C(F)F)c4c3C(F)(F)[C@@H]3C[C@H]43)n(-c3ccc(Cl)c4c(NS(C)(=O)=O)nn(CCN5C[C@H](F)C[C@H](F)C5)c34)c(=O)c12 (atropisomer, axis not shown; (P)) [Example 414, N-[(1S)-1-[(3P)-3-(4-chloro-1-{2-[(3R,5S)-3,5-difluoropiperidin-1-yl]ethyl}-3-methanesulfonamido-1H-indazol-7-yl)-7-(4,4-difluorocyclohexyl)-5-[(2-methoxyethyl)amino]-4-oxo-3H,4H-pyrido[2,3-d]pyrimidin-2-yl]-2-(3,5-difluorophenyl)ethyl]-2-[(2S,4R)-9-(difluoromethyl)-5,5-difluoro-7,8-diazatricyclo[4.3.0.0^2,^4]nona-1(6),8-dien-7-yl]acetamide]	10 pM	–	> 20000 pM
Cc1cc(C2(F)CCC(F)(F)CC2)nc2nc([C@H](Cc3cc(F)cc(F)c3)NC(=O)Cn3nc(C(F)F)c4c3C(F)(F)[C@@H]3C[C@H]43)n(-c3ccc(Cl)c4c(NS(C)(=O)=O)nn(CCN5C[C@@H](C)O[C@@H](C)C5)c34)c(=O)c12 (atropisomer, axis not shown; (P)) [Example 502, N-[(1S)-1-[(3P)-3-(4-chloro-1-{2-[(2R,6S)-2,6-dimethylmorpholin-4-yl]ethyl}-3-methanesulfonamido-1H-indazol-7-yl)-5-methyl-4-oxo-7-(1,4,4-trifluorocyclohexyl)-3H,4H-pyrido[2,3-d]pyrimidin-2-yl]-2-(3,5-difluorophenyl)ethyl]-2-[(2S,4R)-9-(difluoromethyl)-5,5-difluoro-7,8-diazatricyclo[4.3.0.0^2,^4]nona-1(6),8-dien-7-yl]acetamide]	19 pM	–	> 20000 pM
CS(=O)(=O)Nc1nn(CCN2C[C@H]3CC[C@@H](C2)O3)c2c(-n3c([C@H](Cc4cc(F)cc(F)c4)NC(=O)Cn4nc(C5CC5)c5c4C[C@@H]4C[C@H]54)nc4nc(C5CCC(F)(F)CC5)cc(C5CC5)c4c3=O)ccc(Cl)c12 (atropisomer, axis not shown; (P)) [Example 325, N-[(1S)-1-[(3P)-3-(4-chloro-3-methanesulfonamido-1-{2-[(1R,5S)-8-oxa-3-azabicyclo[3.2.1]octan-3-yl]ethyl}-1H-indazol-7-yl)-5-cyclopropyl-7-(4,4-difluorocyclohexyl)-4-oxo-3H,4H-pyrido[2,3-d]pyrimidin-2-yl]-2-(3,5-difluorophenyl)ethyl]-2-[(2S,4S)-9-cyclopropyl-7,8-diazatricyclo[4.3.0.0^2,^4]nona-1(6),8-dien-7-yl]acetamide]	9 pM	–	> 50000 pM
Cc1cc(C2CCC(F)(F)CC2)nc2nc([C@H](Cc3cc(F)cc(F)c3)NC(=O)Cn3nc(C4CC4)c4c3C[C@@H]3C[C@H]43)n(-c3ccc(Cl)c4c(NS(C)(=O)=O)nn(CC(=O)N5CC(C)(C)OC(C)(C)C5)c34)c(=O)c12 (atropisomer, axis not shown; (P)) [Example 396, N-[(1S)-1-[(3P)-3-{4-chloro-3-methanesulfonamido-1-[2-oxo-2-(2,2,6,6-tetramethylmorpholin-4-yl)ethyl]-1H-indazol-7-yl}-7-(4,4-difluorocyclohexyl)-5-methyl-4-oxo-3H,4H-pyrido[2,3-d]pyrimidin-2-yl]-2-(3,5-difluorophenyl)ethyl]-2-[(2S,4S)-9-cyclopropyl-7,8-diazatricyclo[4.3.0.0^2,^4]nona-1(6),8-dien-7-yl]acetamide]	20 pM	–	> 20000 pM
Cc1cc(C2(F)CCC(F)(F)CC2)nc2nc([C@H](Cc3cc(F)cc(F)c3)NC(=O)Cn3nc(C(F)F)c4c3C(F)(F)[C@@H]3C[C@H]43)n(-c3ccc(Cl)c4c(NS(C)(=O)=O)nn([C@H](C)C(=O)N5CC(C)(C)OC(C)(C)C5)c34)c(=O)c12 (atropisomer, axis not shown; (P)) [Example 749, N-[(1S)-1-[(3P)-3-{4-chloro-3-methanesulfonamido-1-[(2R)-1-oxo-1-(2,2,6,6-tetramethylmorpholin-4-yl)propan-2-yl]-1H-indazol-7-yl}-5-methyl-4-oxo-7-(1,4,4-trifluorocyclohexyl)-3H,4H-pyrido[2,3-d]pyrimidin-2-yl]-2-(3,5-difluorophenyl)ethyl]-2-[(2S,4R)-9-(difluoromethyl)-5,5-difluoro-7,8-diazatricyclo[4.3.0.0^2,^4]nona-1(6),8-dien-7-yl]acetamide]	18 pM	–	> 20000 pM
CCc1cc(C2CCC(F)(F)CC2)nc2nc([C@H](Cc3cc(F)cc(F)c3)NC(=O)Cn3nc(C(F)(F)F)c4c3C[C@H]3C[C@@H]43)n(-c3ccc(Cl)c4c(NS(C)(=O)=O)nn(CCCOC)c34)c(=O)c12 (relative stereo) [Example 641, N-[(1S)-1-[(3P)-3-[4-chloro-3-methanesulfonamido-1-(3-methoxypropyl)-1H-indazol-7-yl]-7-(4,4-difluorocyclohexyl)-5-ethyl-4-oxo-3H,4H-pyrido[2,3-d]pyrimidin-2-yl]-2-(3,5-difluorophenyl)ethyl]-2-[(2R*,4R*)-9-(trifluoromethyl)-7,8-diazatricyclo[4.3.0.0^2,^4]nona-1(6),8-dien-7-yl]acetamide]	29 pM	–	> 50000 pM
CS(=O)(=O)Nc1nn(CCN2C[C@H]3C[C@@H]2CO3)c2c(-n3c([C@H](Cc4cc(F)cc(F)c4)NC(=O)Cn4nc(C5CC5)c5c4C[C@@H]4C[C@H]54)nc4nc(C5CCC(F)(F)CC5)cc(C(F)F)c4c3=O)ccc(Cl)c12 (atropisomer, axis not shown; (P)) [Example 298, N-[(1S)-1-[(3P)-3-(4-chloro-3-methanesulfonamido-1-{2-[(1R,4R)-2-oxa-5-azabicyclo[2.2.1]heptan-5-yl]ethyl}-1H-indazol-7-yl)-7-(4,4-difluorocyclohexyl)-5-(difluoromethyl)-4-oxo-3H,4H-pyrido[2,3-d]pyrimidin-2-yl]-2-(3,5-difluorophenyl)ethyl]-2-[(2S,4S)-9-cyclopropyl-7,8-diazatricyclo[4.3.0.0^2,^4]nona-1(6),8-dien-7-yl]acetamide]	16 pM	–	> 50000 pM
COCCCn1nc(NS(C)(=O)=O)c2c(Cl)ccc(-n3c([C@H](Cc4cc(F)cc(F)c4)NC(=O)Cn4nc(C(F)F)c5c4C(F)(F)[C@@H]4C[C@H]54)nc4nc(C5CCC(F)(F)CC5)cc(CN5CCC(F)(F)CC5)c4c3=O)c21 (atropisomer, axis not shown; (P)) [Example 489, N-[(1S)-1-[(3P)-3-[4-chloro-3-methanesulfonamido-1-(3-methoxypropyl)-1H-indazol-7-yl]-7-(4,4-difluorocyclohexyl)-5-[(4,4-difluoropiperidin-1-yl)methyl]-4-oxo-3H,4H-pyrido[2,3-d]pyrimidin-2-yl]-2-(3,5-difluorophenyl)ethyl]-2-[(2S,4R)-9-(difluoromethyl)-5,5-difluoro-7,8-diazatricyclo[4.3.0.0^2,4]nona-1(6),8-dien-7-yl]acetamide]	18 pM	–	> 20000 pM
Cc1cc(C2(F)CCC(F)(F)CC2)nc2nc([C@H](Cc3cc(F)cc(F)c3)NC(=O)Cn3nc(C4CC4)c4c3C[C@@H]3C[C@H]43)n(-c3ccc(Cl)c4c(NS(C)(=O)=O)nn(CCN5CCO[C@H](C(C)C)C5)c34)c(=O)c12 (atropisomer, axis not shown; (P)) [Example 582, N-[(1S)-1-[(3P)-3-(4-chloro-3-methanesulfonamido-1-{2-[(2R)-2-(propan-2-yl)morpholin-4-yl]ethyl}-1H-indazol-7-yl)-5-methyl-4-oxo-7-(1,4,4-trifluorocyclohexyl)-3H,4H-pyrido[2,3-d]pyrimidin-2-yl]-2-(3,5-difluorophenyl)ethyl]-2-[(2S,4S)-9-cyclopropyl-7,8-diazatricyclo[4.3.0.0^2,^4]nona-1(6),8-dien-7-yl]acetamide]	17 pM	–	> 20000 pM
COCCCn1nc(NS(C)(=O)=O)c2c(Cl)ccc(-n3c([C@H](Cc4cc(F)cc(F)c4)NC(=O)Cn4nc(C(F)F)c5c4C(F)(F)[C@@H]4C[C@H]54)nc4nc(C5CCC(F)(F)CC5)cc(NCCC5CCO5)c4c3=O)c21 (stereo partly drawn) [Example 564, N-[(1S)-1-[(3P)-3-[4-chloro-3-methanesulfonamido-1-(3-methoxypropyl)-1H-indazol-7-yl]-7-(4,4-difluorocyclohexyl)-5-{[2-(oxetan-2-yl)ethyl]amino}-4-oxo-3H,4H-pyrido[2,3-d]pyrimidin-2-yl]-2-(3,5-difluorophenyl)ethyl]-2-[(2S,4R)-9-(difluoromethyl)-5,5-difluoro-7,8-diazatricyclo[4.3.0.0^2,^4]nona-1(6),8-dien-7-yl]acetamide]	12 pM	–	> 20000 pM
